Literature values in patent publication US5298246A, “Stable pharmaceutical composition and method for its production” (Kanegafuchi Kagaku Kogyo Kabushiki Kaisha, priority 1991, dated 1994).

COC1=C(OC)C(=O)C(C/C=C(\C)CC/C=C(\C)CC/C=C(\C)CC/C=C(\C)CC/C=C(\C)CC/C=C(\C)CC/C=C(\C)CC/C=C(\C)CC/C=C(\C)CCC=C(C)C)=C(C)C1=O [ubidecarenone]
absorbability upon oral administration: low
